*1 amine or outer side, *2 acyl side, *3 side chain or, on linkers, in order; H or OH if unused. Where a SMILES comes first, the peptide text is derived from it. Side-chain parts run from the residue outwards. [ ]: non-standard residue; d: D form. The star is where a group is joined. C20 diacid = O=C(O)CCCCCCCCCCCCCCCCCCC(=O)*; C18 diacid = O=C(O)CCCCCCCCCCCCCCCCC(=O)*; C16 diacid = O=C(O)CCCCCCCCCCCCCCC(=O)*; γGlu = O=C(O)[C@H](CCC(=O)[*:2])N[*:1]; αMeK = C[C@](N)(CCCCN)C(=O)O; AEEA = NCCOCCOCC(=O)O; Aib = CC(C)(N)C(=O)O
Key:
[1] = target: T1, human CRF2a receptor (Homo sapiens, UniProt Q13324); assay: Activity at human CRF2a receptor, cAMP functional assay in TeloHEAC cells; format: cell-based; settings: TeloHEAC cells stably expressing human CRF2a receptor, relative to urocortin 2 (100 nM = 100%)
T1 construct: expressed in transfected cells; host or cells: TeloHEAC cells
T1 sequence (Q13324 1-411): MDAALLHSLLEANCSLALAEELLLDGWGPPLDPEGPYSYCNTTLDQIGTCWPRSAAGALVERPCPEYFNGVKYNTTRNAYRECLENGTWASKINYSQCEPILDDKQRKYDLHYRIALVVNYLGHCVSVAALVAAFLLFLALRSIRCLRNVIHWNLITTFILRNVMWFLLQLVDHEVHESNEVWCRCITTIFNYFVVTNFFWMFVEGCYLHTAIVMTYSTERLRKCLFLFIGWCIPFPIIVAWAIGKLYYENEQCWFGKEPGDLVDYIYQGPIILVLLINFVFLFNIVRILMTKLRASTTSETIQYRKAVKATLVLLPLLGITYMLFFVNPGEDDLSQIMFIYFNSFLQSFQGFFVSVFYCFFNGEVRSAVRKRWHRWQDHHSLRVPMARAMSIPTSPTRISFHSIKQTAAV
Outline: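 cAMP accumulation was measured by HTRF 665/620 nm ratio after 30 min at 37° C compound exposure (16 twofold dilutions) of CRF2a-expressing TeloHEAC cells, 10000/well, in HEPES-buffered HBSS plus IBMX. Activity was normalised to urocortin 2 at 100 nM (100%), and EC50 was the concentration giving half-maximal activation.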

[2] = target: T2, CFR1R receptor (Homo sapiens, UniProt P34998); assay: Activity at anti-target CFR1R receptor, cAMP assay in CRF1R-overexpression CHO-K1 cells; format: cell-based; settings: 100% = Sauvagine at 100 nM; for EC50: cAMP
T2 construct: host or cells: CHO-K1 (clone 2)
T2 sequence (P34998 24-415): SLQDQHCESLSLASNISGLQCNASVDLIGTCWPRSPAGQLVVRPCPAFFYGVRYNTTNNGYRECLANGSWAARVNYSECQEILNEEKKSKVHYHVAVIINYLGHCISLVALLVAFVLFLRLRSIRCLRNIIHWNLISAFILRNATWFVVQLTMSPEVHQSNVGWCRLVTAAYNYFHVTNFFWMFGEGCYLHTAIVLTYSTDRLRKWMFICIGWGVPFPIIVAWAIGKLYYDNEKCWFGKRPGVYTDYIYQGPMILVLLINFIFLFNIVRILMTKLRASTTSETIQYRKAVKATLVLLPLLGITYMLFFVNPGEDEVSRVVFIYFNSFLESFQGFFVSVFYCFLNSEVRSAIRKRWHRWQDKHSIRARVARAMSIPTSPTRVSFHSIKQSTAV
Outline: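 Signal is normalised to 100 nM Sauvagine, taken as 100% activation, in clone 2 cells plated at a final 4000 cells/well from frozen stocks.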

[3] = Chemical stability in buffer (pH 7.4 / pH 4.5), % purity loss; format: physicochemical; settings: 40° C. vs 5° C., 14 or 28 days; for Buffer stability pH 4.5 % purity loss: 100 mM acetate buffer pH 4.5; for Buffer stability pH 7.4 % purity loss: 100 mM phosphate buffer pH 7.4
Description: Solubility and chemical stability were studied in 100 mM phosphate buffer (pH 7.4) and 100 mM acetate buffer (pH 4.5). Test compound powders were dissolved in both buffers at a target concentration of 10 mg/mL and incubated for 1 hour at room temperature. After centrifugation at 2500 rcf for 15 minutes, 10 μL of supernatant was diluted with 190 μL of the incubation buffer and analyzed by LC-UV (Acquity UPLC-DAD, Waters). Solubility was calculated by comparing the peak area of the test compound in the buffer sample with the peak area of the same compound dissolved at 0.5 mg/mL in water:acetonitrile 1:1, 0.1% formic acid.
From the centrifuged supernatant, two additional 80 μL aliquots were collected and diluted with 160 μL of incubation buffer. One aliquot was stored at 5° C., while the other was stored at 40° C. After 14 or 28 days, the samples were analyzed by LC-UV. Chemical stability was calculated as % loss using the following equations: […]

[4] = system: Sprague Dawley rats; assay: Effect on systolic blood pressure, telemetry in Sprague Dawley rats; format: in vivo, rat; settings: 0.1 mg/kg SC
Description: The effect of the compounds on systolic blood pressure was determined in telemetry studies in Sprague Dawley rats at a dosage of 0.1 mg/kg SC.
The rats were previously implanted with a telemetry device (DSI, Saint-Paul, USA, HD-S10, HD-S11 or HD S21) and allowed to recover for a minimum period of 2 weeks before treatment with vehicle or the different peptides. Blood pressure (BP) was recorded through a catheter inserted into the abdominal aorta. The device body was placed in the abdomen. The animals were allowed to recover from surgery for at least 10 days before the first administration of test drug or vehicle.
The chronically instrumented rats of the telemetry studies were individually housed immediately after surgery and then housed in pairs with a non-instrumented companion after recovery.
Systolic blood pressure was recorded for one hour before treatment (basal period). Thereafter, the subcutaneous administration of the test compound or its vehicle was performed, under continuous recording of the signal up to 48 hours, analysed and expressed as % change from baseline.
Representative data are presented in Table 13 below, in which “Duration of action” indicates the last time point for which an effect on BP was still observed (n=2 animals/peptide)

Row | EC50 [1] | Emax (% I) [2] | EC50 [2] | Buffer stability pH 4.5 % purity loss [3] | Buffer stability pH 7.4 % purity loss [3] | Compound | Systolic blood pressure (Mean) % change from baseline, 8 h ([4]; 8 h, n=2) | Systolic blood pressure (Mean) % change from baseline, 12 h ([4]; 12 h, n=2) | Systolic blood pressure (Mean) % change from baseline, 24 h ([4]; 24 h, n=2) | Duration of action ([4]; last time point with an effect on BP still observed)
1 | 1.61 nM | 0 % I | > 250 nM | 0% | 4.5% | CC[C@H](C)[C@H](NC(=O)[C@H](CCC(N)=O)NC(=O)[C@H](CCCCN)NC(=O)[C@H](CC(N)=O)NC(=O)[C@@H](NC(=O)[C@H](CCC(=O)O)NC(=O)[C@H](C)NC(=O)[C@H](CCC(N)=O)NC(=O)[C@H](CCC(=O)O)NC(=O)[C@H](CCCNC(=N)N)NC(=O)[C@H](CCC(N)=O)NC(=O)[C@H](CCCCN)NC(=O)[C@H](CCCCN)NC(=O)[C@H](CCC(N)=O)NC(=O)[C@H](CCCCN)NC(=O)[C@H](CCC(=O)O)NC(=O)[C@H](CCC(N)=O)NC(=O)[C@H](CCC(=O)O)NC(=O)[C@H](CC(C)C)NC(=O)[C@H](CC(C)C)NC(=O)[C@@H](NC(=O)[C@H](CCCCN)NC(=O)[C@H](CCCCNC(=O)CC[C@H](NC(=O)CCCCCCCCCCCCCCC(=O)O)C(=O)O)NC(=O)[C@H](CC(C)C)NC(=O)[C@H](CCCCN)NC(=O)[C@@H](NC(=O)[C@@H]1CCCN1C(=O)[C@H](NC(=O)[C@H](CC(=O)O)NC(=O)[C@H](CC(C)C)NC(=O)[C@H](CO)NC(=O)[C@H](CC(C)C)NC(=O)[C@@H](N)C(C)C)C(C)C)[C@@H](C)CC)[C@@H](C)CC)[C@@H](C)O)C(=O)N[C@@H](CC(C)C)C(=O)N[C@@H](C)C(=O)N[C@@H](CCC(N)=O)C(=O)N[C@H](C(N)=O)C(C)C [compound 34] (H-VLSLD[dV]PIKLK([γGlu-C16 diacid])KILLEQEKQKKQREQAETNKQILAQV-NH2) | – | – | – | –
2 | 0.12 nM | 20 % I | > 250 nM | nd/0 ^ % | – | CC[C@H](C)[C@H](NC(C)=O)C(=O)N[C@H](C(=O)N[C@@H](CC(C)C)C(=O)N[C@@H](CO)C(=O)N[C@@H](CC(C)C)C(=O)N[C@@H](CC(=O)O)C(=O)N[C@@H](C(=O)N1CCC[C@H]1C(=O)N[C@H](C(=O)N[C@@H](CCCCN)C(=O)N[C@@H](CC(C)C)C(=O)N[C@@H](CCCCNC(=O)CC[C@H](NC(=O)CCCCCCCCCCCCCCC(=O)O)C(=O)O)C(=O)N[C@@H](CCCCN)C(=O)N[C@H](C(=O)N[C@@H](CC(C)C)C(=O)N[C@@H](CC(C)C)C(=O)N[C@@H](CCC(=O)O)C(=O)N[C@@H](CCC(N)=O)C(=O)N[C@@H](CCC(=O)O)C(=O)N[C@@H](CCCCN)C(=O)N[C@@H](CCC(N)=O)C(=O)N[C@@H](CCCCN)C(=O)N[C@@H](CCCCN)C(=O)N[C@@H](CCC(N)=O)C(=O)N[C@@H](CCCNC(=N)N)C(=O)N[C@@H](CCC(=O)O)C(=O)N[C@@H](CCC(N)=O)C(=O)N[C@@H](C)C(=O)N[C@@H](CCC(=O)O)C(=O)N[C@H](C(=O)N[C@@H](CC(N)=O)C(=O)N[C@@](C)(CCCCN)C(=O)N[C@@H](CCC(N)=O)C(=O)N[C@H](C(=O)N[C@@H](CC(C)C)C(=O)N[C@@H](C)C(=O)N[C@@H](CCC(N)=O)C(=O)N[C@H](C(N)=O)C(C)C)[C@@H](C)CC)[C@@H](C)O)[C@@H](C)CC)[C@@H](C)CC)C(C)C)C(C)C [compound 54] (Ac-IVLSLD[dV]PIKLK([γGlu-C16 diacid])KILLEQEKQKKQREQAETN[αMeK]QILAQV-NH2) | – | – | – | –
3 | 2.3 nM | 5 % I | > 250 nM | 0% | 16.8% | CC[C@H](C)[C@H](NC(=O)[C@H](CCC(N)=O)NC(=O)[C@H](CCCCN)NC(=O)[C@H](CC(N)=O)NC(=O)[C@@H](NC(=O)[C@H](CCC(=O)O)NC(=O)[C@H](C)NC(=O)[C@H](CCC(N)=O)NC(=O)[C@H](CCC(=O)O)NC(=O)[C@H](CCCNC(=N)N)NC(=O)[C@H](CCC(N)=O)NC(=O)[C@H](CCCCN)NC(=O)[C@H](CCCCN)NC(=O)[C@H](CCC(N)=O)NC(=O)[C@H](CCCCN)NC(=O)[C@H](CCC(=O)O)NC(=O)[C@H](CCC(N)=O)NC(=O)[C@H](CCC(=O)O)NC(=O)[C@H](CC(C)C)NC(=O)[C@H](CC(C)C)NC(=O)[C@@H](NC(=O)[C@H](CCCCN)NC(=O)[C@H](CCCCNC(=O)COCCOCCNC(=O)COCCOCCNC(=O)CC[C@H](NC(=O)CCCCCCCCCCCCCCCCC(=O)O)C(=O)O)NC(=O)[C@H](CC(C)C)NC(=O)[C@H](CCCCN)NC(=O)[C@@H](NC(=O)[C@@H]1CCCN1C(=O)[C@H](NC(=O)[C@H](CC(=O)O)NC(=O)[C@H](CC(C)C)NC(=O)[C@H](CO)NC(=O)[C@H](CC(C)C)NC(=O)[C@@H](NC(C)=O)C(C)C)C(C)C)[C@@H](C)CC)[C@@H](C)CC)[C@@H](C)O)C(=O)N[C@@H](CC(C)C)C(=O)N[C@@H](C)C(=O)N[C@@H](CCC(N)=O)C(=O)N[C@H](C(N)=O)C(C)C [compound 92] (Ac-VLSLD[dV]PIKLK([AEEA-AEEA-γGlu-C18 diacid])KILLEQEKQKKQREQAETNKQILAQV-NH2) | – | – | – | –
4 | 0.16 nM | 30 % I | > 250 nM | – | – | CC[C@H](C)[C@H](NC(C)=O)C(=O)N[C@H](C(=O)N[C@@H](CC(C)C)C(=O)N[C@@H](CO)C(=O)N[C@@H](CC(C)C)C(=O)N[C@@H](CC(=O)O)C(=O)N[C@@H](C(=O)N1CCC[C@H]1C(=O)N[C@H](C(=O)N[C@@H](CCCCN)C(=O)N[C@@H](CC(C)C)C(=O)N[C@@H](CCCCNC(=O)COCCOCCNC(=O)CC[C@H](NC(=O)CCCCCCCCCCCCCCCCCCC(=O)O)C(=O)O)C(=O)N[C@@H](CCCCN)C(=O)N[C@H](C(=O)N[C@@H](CC(C)C)C(=O)N[C@@H](CC(C)C)C(=O)N[C@@H](CCC(=O)O)C(=O)N[C@@H](CCC(N)=O)C(=O)N[C@@H](CCC(=O)O)C(=O)N[C@@H](CCCCN)C(=O)N[C@@H](CCC(N)=O)C(=O)N[C@@H](CCCCN)C(=O)N[C@@H](CCCCN)C(=O)N[C@@H](CCC(N)=O)C(=O)N[C@@H](CCCNC(=N)N)C(=O)N[C@@H](CCC(=O)O)C(=O)N[C@@H](CCC(N)=O)C(=O)N[C@@H](C)C(=O)N[C@@H](CCC(=O)O)C(=O)N[C@H](C(=O)N[C@@H](CC(N)=O)C(=O)NC(C)(C)C(=O)N[C@@H](CCC(N)=O)C(=O)N[C@H](C(=O)N[C@@H](CC(C)C)C(=O)N[C@@H](C)C(=O)N[C@@H](CCC(N)=O)C(=O)N[C@H](C(N)=O)C(C)C)[C@@H](C)CC)[C@@H](C)O)[C@@H](C)CC)[C@@H](C)CC)C(C)C)C(C)C [compound 230] (Ac-IVLSLD[dV]PIKLK([AEEA-γGlu-C20 diacid])KILLEQEKQKKQREQAETN[Aib]QILAQV-NH2) | −15% | −16% | 3% | 23 h

Reference: patent publication US20260001928A1 (CORTERIA PHARMACEUTICALS, priority 2022, published 2026)
